Experimental data reported in ChEMBL document CHEMBL5696441 (Nat Chem Biol, 2011).

What was measured:
[1] = molecular target: T1, Tyrosine-protein kinase Tec (Homo sapiens) (UniProt P42680); test: Inhibition of TEC (unknown origin) assessed as remaining activity at 1 uM by Kinome scan method relative to control
T1 sequence (whole entry): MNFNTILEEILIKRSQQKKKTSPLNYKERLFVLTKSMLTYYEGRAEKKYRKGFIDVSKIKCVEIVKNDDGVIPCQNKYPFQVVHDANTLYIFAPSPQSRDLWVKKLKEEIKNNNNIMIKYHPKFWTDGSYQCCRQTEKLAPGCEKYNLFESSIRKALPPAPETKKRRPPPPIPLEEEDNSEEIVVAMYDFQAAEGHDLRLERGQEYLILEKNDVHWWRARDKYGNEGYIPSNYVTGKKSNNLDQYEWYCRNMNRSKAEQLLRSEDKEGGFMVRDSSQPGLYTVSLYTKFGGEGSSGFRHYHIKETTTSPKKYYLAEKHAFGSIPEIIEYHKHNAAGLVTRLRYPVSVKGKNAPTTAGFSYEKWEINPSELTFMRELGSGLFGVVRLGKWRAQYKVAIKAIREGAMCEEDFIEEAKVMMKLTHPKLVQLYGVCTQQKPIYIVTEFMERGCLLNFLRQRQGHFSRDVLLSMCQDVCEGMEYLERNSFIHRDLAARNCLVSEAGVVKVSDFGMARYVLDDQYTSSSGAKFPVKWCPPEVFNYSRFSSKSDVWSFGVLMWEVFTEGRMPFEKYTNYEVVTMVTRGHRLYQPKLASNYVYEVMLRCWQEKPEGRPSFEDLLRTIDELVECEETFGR

[2] = molecular target: MAP kinase-interacting serine/threonine-protein kinase 2 (Homo sapiens) (UniProt Q9HBH9); test: Inhibition of MKNK2 (unknown origin) assessed as remaining activity at 1 uM by Kinome scan method relative to control
[3] = molecular target: Mitogen-activated protein kinase kinase kinase kinase 1 (Homo sapiens) (UniProt Q92918); test: Inhibition of HPK1 (unknown origin) assessed as remaining activity at 1 uM by Kinome scan method relative to control
[4] = molecular target: Mitogen-activated protein kinase 11 (Homo sapiens) (UniProt Q15759); test: Inhibition of P38beta (unknown origin) assessed as remaining activity at 1 uM by Kinome scan method relative to control
[5] = molecular target: Serine/threonine-protein kinase RIO1 (Homo sapiens) (UniProt Q9BRS2); test: Inhibition of RIOK1 (unknown origin) assessed as remaining activity at 1 uM by Kinome scan method relative to control
[6] = molecular target: Serine/threonine-protein kinase PLK3 (Homo sapiens) (UniProt Q9H4B4); test: Inhibition of PLK3 (unknown origin) assessed as remaining activity at 1 uM by Kinome scan method relative to control
[7] = molecular target: 3-phosphoinositide-dependent protein kinase 1 (Homo sapiens) (UniProt O15530); test: Inhibition of PDPK1 (unknown origin) assessed as remaining activity at 1 uM by Kinome scan method relative to control
[8] = molecular target: Serine/threonine-protein kinase MARK2 (Homo sapiens) (UniProt Q7KZI7); test: Inhibition of MARK2 (unknown origin) assessed as remaining activity at 1 uM by Kinome scan method relative to control
[9] = molecular target: Bone morphogenetic protein receptor type-1A (Homo sapiens) (UniProt P36894); test: Inhibition of BMPR1A (unknown origin) assessed as remaining activity at 1 uM by Kinome scan method relative to control
[10] = molecular target: Serine/threonine-protein kinase ICK (Homo sapiens) (UniProt Q9UPZ9); test: Inhibition of ICK (unknown origin) assessed as remaining activity at 1 uM by Kinome scan method relative to control
[11] = molecular target: Myosin light chain kinase, smooth muscle (Homo sapiens) (UniProt Q15746); test: Inhibition of MYLK (unknown origin) assessed as remaining activity at 1 uM by Kinome scan method relative to control
[12] = molecular target: Ribosomal protein S6 kinase alpha-4 (Homo sapiens) (UniProt O75676); test: Inhibition of C-terminal kinase domain RPS6KA4 (unknown origin) assessed as remaining activity at 1 uM by Kinome scan method relative to control
[13] = molecular target: Non-receptor tyrosine-protein kinase TNK1 (Homo sapiens) (UniProt Q13470); test: Inhibition of TNK1 (unknown origin) assessed as remaining activity at 1 uM by Kinome scan method relative to control
[14] = molecular target: T2, Mitogen-activated protein kinase kinase kinase kinase 2 (Homo sapiens) (UniProt Q12851); test: Inhibition of MAP4K2 (unknown origin) assessed as remaining activity at 1 uM by Kinome scan method relative to control
T2 sequence (whole entry): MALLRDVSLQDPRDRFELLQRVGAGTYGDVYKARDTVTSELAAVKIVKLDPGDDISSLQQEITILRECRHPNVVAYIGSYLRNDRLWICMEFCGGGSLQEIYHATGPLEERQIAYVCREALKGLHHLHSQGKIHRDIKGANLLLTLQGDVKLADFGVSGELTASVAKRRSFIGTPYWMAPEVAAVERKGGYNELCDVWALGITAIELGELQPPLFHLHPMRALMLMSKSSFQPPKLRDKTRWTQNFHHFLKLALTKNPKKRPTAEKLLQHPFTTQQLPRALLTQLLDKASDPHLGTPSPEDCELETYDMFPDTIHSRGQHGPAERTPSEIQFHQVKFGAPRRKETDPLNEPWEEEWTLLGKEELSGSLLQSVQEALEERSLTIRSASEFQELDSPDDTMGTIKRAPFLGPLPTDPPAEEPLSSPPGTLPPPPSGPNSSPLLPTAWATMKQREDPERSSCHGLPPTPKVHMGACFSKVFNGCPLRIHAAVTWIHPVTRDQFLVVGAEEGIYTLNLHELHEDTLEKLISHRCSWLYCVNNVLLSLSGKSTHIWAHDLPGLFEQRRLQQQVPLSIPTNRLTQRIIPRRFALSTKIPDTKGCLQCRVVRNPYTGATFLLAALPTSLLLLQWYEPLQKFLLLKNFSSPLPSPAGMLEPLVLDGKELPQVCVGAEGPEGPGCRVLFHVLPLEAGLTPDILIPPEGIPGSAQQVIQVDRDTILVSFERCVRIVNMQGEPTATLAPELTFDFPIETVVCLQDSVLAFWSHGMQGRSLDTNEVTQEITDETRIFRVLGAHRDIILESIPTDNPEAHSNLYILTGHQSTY

[15] = molecular target: Rhodopsin kinase GRK1 (Homo sapiens) (UniProt Q15835); test: Inhibition of GRK1 (unknown origin) assessed as remaining activity at 1 uM by Kinome scan method relative to control
[16] = molecular target: Serine/threonine-protein kinase SIK2 (Homo sapiens) (UniProt Q9H0K1); test: Inhibition of SIK2 (unknown origin) assessed as remaining activity at 1 uM by Kinome scan method relative to control
[17] = molecular target: Casein kinase I isoform gamma-1 (Homo sapiens) (UniProt Q9HCP0); test: Inhibition of CSNK1G1 (unknown origin) assessed as remaining activity at 1 uM by Kinome scan method relative to control
[18] = molecular target: TRAF2 and NCK-interacting protein kinase (Homo sapiens) (UniProt Q9UKE5); test: Inhibition of TNIK (unknown origin) assessed as remaining activity at 1 uM by Kinome scan method relative to control

Sequence of Myosin light chain kinase, smooth muscle (Homo sapiens) (Q15746 whole entry, the tested form may be a part): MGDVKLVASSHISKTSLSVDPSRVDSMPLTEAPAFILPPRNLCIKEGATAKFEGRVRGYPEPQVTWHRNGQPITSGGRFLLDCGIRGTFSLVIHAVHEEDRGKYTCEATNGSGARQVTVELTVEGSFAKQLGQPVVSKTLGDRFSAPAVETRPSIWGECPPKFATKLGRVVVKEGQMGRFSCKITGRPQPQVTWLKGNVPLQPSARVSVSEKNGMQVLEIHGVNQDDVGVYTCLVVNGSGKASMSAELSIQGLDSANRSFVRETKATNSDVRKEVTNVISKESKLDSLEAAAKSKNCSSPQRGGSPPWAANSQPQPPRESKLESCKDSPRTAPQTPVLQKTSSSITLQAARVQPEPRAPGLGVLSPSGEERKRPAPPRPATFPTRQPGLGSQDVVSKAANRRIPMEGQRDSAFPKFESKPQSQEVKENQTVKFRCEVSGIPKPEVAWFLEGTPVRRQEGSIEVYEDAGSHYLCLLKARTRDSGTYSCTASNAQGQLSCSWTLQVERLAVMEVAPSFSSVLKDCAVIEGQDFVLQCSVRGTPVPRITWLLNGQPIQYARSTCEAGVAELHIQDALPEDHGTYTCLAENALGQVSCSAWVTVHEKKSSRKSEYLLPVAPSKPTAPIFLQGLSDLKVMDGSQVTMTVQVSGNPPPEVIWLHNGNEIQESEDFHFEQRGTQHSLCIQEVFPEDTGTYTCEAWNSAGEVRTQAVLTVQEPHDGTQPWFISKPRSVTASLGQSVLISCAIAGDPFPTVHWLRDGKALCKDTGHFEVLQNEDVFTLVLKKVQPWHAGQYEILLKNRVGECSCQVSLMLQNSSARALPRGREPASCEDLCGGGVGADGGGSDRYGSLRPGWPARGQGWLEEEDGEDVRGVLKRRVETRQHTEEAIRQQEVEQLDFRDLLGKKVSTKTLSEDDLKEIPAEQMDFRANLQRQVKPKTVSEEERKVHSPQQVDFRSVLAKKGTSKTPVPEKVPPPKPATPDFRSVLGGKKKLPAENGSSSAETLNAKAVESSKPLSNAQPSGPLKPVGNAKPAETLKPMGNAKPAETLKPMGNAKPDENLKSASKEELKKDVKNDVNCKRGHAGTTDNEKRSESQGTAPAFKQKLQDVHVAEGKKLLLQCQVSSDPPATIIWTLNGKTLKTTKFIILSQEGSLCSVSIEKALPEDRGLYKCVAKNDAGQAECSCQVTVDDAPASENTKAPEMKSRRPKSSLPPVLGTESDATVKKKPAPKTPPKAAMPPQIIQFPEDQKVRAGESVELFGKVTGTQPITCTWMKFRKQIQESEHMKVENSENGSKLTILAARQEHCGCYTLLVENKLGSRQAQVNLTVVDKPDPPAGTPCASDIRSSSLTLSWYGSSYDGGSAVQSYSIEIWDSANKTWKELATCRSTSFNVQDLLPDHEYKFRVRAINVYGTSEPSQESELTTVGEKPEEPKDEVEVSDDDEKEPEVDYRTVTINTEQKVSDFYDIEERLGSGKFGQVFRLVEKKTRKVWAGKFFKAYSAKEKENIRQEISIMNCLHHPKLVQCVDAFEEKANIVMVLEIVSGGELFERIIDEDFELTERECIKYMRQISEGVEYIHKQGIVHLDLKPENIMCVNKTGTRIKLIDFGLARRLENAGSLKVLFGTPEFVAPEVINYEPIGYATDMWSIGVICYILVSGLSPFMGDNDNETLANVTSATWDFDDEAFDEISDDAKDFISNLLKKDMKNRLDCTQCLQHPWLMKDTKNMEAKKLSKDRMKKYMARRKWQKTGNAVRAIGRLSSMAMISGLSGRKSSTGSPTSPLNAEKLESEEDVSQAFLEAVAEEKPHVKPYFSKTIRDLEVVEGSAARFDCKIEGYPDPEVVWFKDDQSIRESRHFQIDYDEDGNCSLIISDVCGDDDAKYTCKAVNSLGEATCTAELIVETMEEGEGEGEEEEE
Sequence of Serine/threonine-protein kinase PLK3 (Homo sapiens) (Q9H4B4 whole entry, looked up): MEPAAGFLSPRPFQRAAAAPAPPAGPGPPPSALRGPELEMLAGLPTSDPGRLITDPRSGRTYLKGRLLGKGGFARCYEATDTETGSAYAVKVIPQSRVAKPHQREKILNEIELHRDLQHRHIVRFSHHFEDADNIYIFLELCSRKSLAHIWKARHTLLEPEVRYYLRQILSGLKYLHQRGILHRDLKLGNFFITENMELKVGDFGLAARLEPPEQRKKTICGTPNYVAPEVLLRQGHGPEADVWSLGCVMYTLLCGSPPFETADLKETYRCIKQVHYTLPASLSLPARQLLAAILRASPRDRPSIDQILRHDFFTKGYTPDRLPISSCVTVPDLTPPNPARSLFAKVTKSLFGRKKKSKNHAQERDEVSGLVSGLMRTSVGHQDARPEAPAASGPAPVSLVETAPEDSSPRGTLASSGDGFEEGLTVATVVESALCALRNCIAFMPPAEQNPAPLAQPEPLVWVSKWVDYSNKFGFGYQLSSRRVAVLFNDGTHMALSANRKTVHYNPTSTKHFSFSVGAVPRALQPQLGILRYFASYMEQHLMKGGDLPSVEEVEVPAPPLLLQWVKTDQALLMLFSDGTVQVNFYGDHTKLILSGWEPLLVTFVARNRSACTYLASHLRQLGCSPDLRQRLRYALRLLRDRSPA
Sequence of Ribosomal protein S6 kinase alpha-4 (Homo sapiens) (O75676 whole entry, looked up, the tested form may be a part): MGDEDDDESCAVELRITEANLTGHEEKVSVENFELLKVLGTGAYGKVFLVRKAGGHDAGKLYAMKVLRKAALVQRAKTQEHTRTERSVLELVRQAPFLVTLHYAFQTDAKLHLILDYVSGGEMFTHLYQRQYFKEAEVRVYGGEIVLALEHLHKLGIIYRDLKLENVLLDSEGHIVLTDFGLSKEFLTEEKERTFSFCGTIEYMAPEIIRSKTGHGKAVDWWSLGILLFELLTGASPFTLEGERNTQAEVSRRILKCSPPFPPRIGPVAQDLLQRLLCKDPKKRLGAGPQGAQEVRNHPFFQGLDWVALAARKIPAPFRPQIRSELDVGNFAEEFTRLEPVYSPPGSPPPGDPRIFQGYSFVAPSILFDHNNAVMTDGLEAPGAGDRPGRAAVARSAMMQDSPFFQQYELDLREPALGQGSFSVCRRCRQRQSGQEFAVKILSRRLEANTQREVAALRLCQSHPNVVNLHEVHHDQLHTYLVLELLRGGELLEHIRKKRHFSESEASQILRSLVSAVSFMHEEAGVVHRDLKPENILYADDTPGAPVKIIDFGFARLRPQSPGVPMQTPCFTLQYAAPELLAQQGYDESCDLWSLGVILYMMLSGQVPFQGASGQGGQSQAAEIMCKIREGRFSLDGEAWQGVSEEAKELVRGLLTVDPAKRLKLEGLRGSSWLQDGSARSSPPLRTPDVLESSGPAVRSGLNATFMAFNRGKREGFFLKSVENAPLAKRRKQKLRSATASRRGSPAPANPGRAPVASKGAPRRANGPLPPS
Sequence of Bone morphogenetic protein receptor type-1A (Homo sapiens) (P36894 whole entry): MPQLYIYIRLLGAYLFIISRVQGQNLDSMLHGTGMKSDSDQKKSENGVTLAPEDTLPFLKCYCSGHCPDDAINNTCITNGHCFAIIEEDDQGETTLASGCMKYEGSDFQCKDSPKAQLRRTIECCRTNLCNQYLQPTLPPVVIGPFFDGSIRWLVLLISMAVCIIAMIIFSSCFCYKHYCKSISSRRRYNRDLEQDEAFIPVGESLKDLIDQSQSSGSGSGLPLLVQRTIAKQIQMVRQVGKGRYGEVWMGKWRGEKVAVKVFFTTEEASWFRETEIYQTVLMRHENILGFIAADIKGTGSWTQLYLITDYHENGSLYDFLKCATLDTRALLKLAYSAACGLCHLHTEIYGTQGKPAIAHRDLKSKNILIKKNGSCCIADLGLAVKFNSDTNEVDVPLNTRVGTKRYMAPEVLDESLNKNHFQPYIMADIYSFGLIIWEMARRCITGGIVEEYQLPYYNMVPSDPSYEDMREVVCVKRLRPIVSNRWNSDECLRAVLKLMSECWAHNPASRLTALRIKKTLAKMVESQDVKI
Sequence of Mitogen-activated protein kinase kinase kinase kinase 1 (Homo sapiens) (Q92918 whole entry, looked up): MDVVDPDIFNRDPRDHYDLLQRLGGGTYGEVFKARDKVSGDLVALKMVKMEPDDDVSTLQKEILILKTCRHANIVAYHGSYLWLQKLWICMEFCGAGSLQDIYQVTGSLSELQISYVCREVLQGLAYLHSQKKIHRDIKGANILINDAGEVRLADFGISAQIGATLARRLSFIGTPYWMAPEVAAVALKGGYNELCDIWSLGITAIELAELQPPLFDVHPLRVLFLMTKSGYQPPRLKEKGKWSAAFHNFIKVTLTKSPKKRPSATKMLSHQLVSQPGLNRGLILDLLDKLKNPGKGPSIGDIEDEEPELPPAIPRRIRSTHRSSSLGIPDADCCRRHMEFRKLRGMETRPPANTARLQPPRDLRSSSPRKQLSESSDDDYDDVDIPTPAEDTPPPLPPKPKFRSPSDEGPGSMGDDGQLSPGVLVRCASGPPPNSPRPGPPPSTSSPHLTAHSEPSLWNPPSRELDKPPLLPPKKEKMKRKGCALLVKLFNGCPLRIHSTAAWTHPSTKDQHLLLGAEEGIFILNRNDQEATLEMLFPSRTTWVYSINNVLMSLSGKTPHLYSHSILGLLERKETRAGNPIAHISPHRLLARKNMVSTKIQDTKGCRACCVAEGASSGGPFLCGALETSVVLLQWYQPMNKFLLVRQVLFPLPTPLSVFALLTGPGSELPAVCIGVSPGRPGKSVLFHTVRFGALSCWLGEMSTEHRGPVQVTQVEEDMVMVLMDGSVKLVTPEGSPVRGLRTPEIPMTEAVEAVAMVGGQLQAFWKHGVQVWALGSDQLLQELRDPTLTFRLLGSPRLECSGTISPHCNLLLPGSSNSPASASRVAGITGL
Sequence of Mitogen-activated protein kinase 11 (Homo sapiens) (Q15759 whole entry): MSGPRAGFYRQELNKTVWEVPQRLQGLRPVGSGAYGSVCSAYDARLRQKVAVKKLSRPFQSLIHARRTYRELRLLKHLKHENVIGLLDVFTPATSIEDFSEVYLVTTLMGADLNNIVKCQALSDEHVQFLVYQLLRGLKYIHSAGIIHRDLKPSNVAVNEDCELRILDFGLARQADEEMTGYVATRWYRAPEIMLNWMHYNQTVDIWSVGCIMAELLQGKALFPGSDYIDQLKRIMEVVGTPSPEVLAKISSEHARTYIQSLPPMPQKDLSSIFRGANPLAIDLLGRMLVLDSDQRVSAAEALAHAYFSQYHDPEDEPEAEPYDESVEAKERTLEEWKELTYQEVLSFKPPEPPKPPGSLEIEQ

Row | Compound | Activity [1] [%] | Activity [2] [%] | Activity [3] [%] | Activity [4] [%] | Activity [5] [%] | Activity [6] [%] | Activity [7] [%] | Activity [8] [%] | Activity [9] [%] | Activity [10] [%] | Activity [11] [%] | Activity [12] [%] | Activity [13] [%] | Activity [14] [%] | Activity [15] [%] | Activity [16] [%] | Activity [17] [%] | Activity [18] [%]
1 | Nc1ccccc1Nc1ccc2c(c1)CCc1ccccc1C2=O | 98 | 88 | 96 | 0.9 | 94 | 97 | 90 | 72 | 98 | 83 | 72 | 85 | 90 | 99 | 84 | 83 | 79 | 90
2 | O=C1c2ccc(Nc3ccc(F)cc3F)cc2CCc2ccc(OC[C@H](O)CO)cc21 [Skepinone-L] | 99 | 72 | 85 | 0.15 | 95 | 100 | 100 | 97 | 100 | 99 | 97 | 100 | 79 | 94 | 76 | 93 | 90 | 93
